Where a name gives a salt, the structure may show the parent alone.

The target of this assay is T1, hNPRA (Homo sapiens, UniProt P16066).
T1 construct: expressed in transfected cells
T1 sequence (P16066 33-1061): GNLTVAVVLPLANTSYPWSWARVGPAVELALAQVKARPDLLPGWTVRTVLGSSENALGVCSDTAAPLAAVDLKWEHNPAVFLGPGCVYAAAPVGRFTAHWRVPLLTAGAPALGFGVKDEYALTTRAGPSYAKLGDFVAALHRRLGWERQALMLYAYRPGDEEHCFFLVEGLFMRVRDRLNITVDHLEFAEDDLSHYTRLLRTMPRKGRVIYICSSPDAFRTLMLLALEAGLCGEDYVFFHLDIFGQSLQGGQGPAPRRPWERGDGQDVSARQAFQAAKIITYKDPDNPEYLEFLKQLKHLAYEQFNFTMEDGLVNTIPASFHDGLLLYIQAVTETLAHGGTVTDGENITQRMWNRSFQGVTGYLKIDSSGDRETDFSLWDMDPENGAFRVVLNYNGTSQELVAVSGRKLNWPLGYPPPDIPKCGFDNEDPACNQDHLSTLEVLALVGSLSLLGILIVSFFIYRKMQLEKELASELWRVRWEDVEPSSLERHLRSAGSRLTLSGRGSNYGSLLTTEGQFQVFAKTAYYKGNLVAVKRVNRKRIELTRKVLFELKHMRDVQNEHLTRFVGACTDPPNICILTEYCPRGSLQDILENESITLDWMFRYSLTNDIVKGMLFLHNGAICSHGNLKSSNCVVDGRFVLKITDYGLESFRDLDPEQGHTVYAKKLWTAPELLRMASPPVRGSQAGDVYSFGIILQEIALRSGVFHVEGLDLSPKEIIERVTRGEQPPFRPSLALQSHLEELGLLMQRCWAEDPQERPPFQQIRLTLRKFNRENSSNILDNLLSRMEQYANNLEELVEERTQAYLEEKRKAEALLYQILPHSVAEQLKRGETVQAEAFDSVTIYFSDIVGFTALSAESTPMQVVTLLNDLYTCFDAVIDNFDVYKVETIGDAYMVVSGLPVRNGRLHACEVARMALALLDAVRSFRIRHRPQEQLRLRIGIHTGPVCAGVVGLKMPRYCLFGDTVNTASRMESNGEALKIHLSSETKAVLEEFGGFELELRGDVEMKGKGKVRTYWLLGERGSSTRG
In words: NPRA Functional Cell Assay (cGMP HTRF, NPRA HEK JumpIn stable cells). The assay is classed as cell-based. As to conditions: cGMP production, 1 hour at 37° C., 10-point dose response. The procedure, abridged:
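cGMP HTRF read-out after 1 hour compound treatment at 37° C. of human NPRA-expressing HEK JumpIn cells, 1500 cells/well, in buffer with phosphodiesterase inhibitors IBMX and RO20 (100 uM each). Signal converted to [cGMP] by calibration curve; EC50s fitted by 4-parameter logistic; 50 nM h-ANP as positive response.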
By EC50 is commonly meant the concentration giving half of the maximal effect. A lower EC50 goes with an effect from little substance. `CC(C)(C)[C@H]1CCc2nc3sc(C(=O)N[C@H](CCN[C@H]4COC[C@@H]4O)c4ccc(-c5ccc(=O)[nH]c5)cc4)cc3cc2C1` (racemic) [Example 69, [rac-(3S,4R)-4-hydroxytetrahydrofuran-3-yl]-[rac-(3R)-3-[4-(6-oxo-1H-pyridin-3-yl)phenyl]-3-[[rac-(6S)-6-tert-butyl-5,6,7,8-tetrahydrothieno[2,3-b]quinoline-2-carbonyl]amino]propyl] ammonium;formate]: the midpoint of the response, the EC50, lay at 1830 nM.
The same measure for `CC(C)(C)[C@H]1CCc2nc3sc(C(=O)N[C@H](CCN4CCCCC4)c4ccc(-c5ccc(O)nc5)cc4)cc3cc2C1` (racemic) [Example 1, ammonium;5-[4-[rac-(1R)-3-(1-piperidyl)-1-[[rac-(6S)-6-tert-butyl-5,6,7,8-tetrahydrothieno[2,3-b]quinoline-2-carbonyl]amino]propyl]phenyl]yridine-2-olate]: 233 nM; for `CC(C)(C)[C@H]1CCc2nc3sc(C(=O)N[C@H](CCN4CCCC5(CC5)C4)c4ccc(-c5ccc(=O)[nH]c5)cc4)cc3cc2C1` (racemic) [Example 47, rac-(6S)-6-tert-butyl-N-[rac-(1R)-3-(5-azoniaspiro[2.5]octan-5-yl)-1-[4-(6-oxo-1H-pyridin-3-yl)phenyl]propyl]-5,6,7,8-tetrahydrothieno[2,3-b]quinoline-2-carboxamide;formate]: 674 nM.
In the case of `CC(C)(C)[C@H]1CCc2nc3sc(C(=O)N[C@H](CCN4C[C@@H](O)[C@@H](O)C4)c4ccc(-c5ccc(=O)[nH]c5)cc4)cc3cc2C1` (racemic) [Example 61, rac-(6S)-6-tert-butyl-N-[rac-(1R)-1-[4-(6-oxo-1H-pyridin-3-yl)phenyl]-3-[rac-(3S,4R)-3,4-dihydroxypyrrolidin-1-ium-1-yl]propyl]-5,6,7,8-tetrahydrothieno[2,3-b]quinoline-2-carboxamide;formate] it was 1040 nM; in that of `CC(C)(C)[C@H]1CCc2nc3sc(C(=O)N[C@H](CCN4CCC(N)CC4)c4ccc(-c5cnc(O)c(F)c5)cc4)nc3cc2C1` (racemic) [Example 198, [1-[rac-(3R)-3-[4-(5-fluoro-6-hydroxy-3-pyridyl)phenyl]-3-[[rac-(7S)-7-tert-butyl-5,6,7,8-tetrahydrothiazolo[5,4-b]quinoline-2-carbonyl]amino]propyl]-4-piperidyl]ammonium; formate], 220 nM; in that of `CC(C)(C)[C@H]1CCc2nc3sc(C(=O)N[C@H](CCN4CCC[C@H](O)[C@H]4CO)c4ccc(-c5ccc(=O)[nH]c5)cc4)cc3cc2C1` (racemic) [Example 31, rac-(6S)-6-tert-butyl-N-[rac-(1R)-1-[4-(6-oxo-1H-pyridin-3-yl)phenyl]-3-[rac-(2R,3S)-3-hydroxy-2-(hydroxymethyl)piperidin-1-ium-1-yl]propyl]-5,6,7,8-tetrahydrothieno[2,3-b]quinoline-2-carboxamide; formate], 473 nM.
The same measure for `CC(C)(C)[C@H]1CCc2nc3sc(C(=O)NC(CCN4CCCC4)c4ccncc4)nc3cc2C1` (stereo partly drawn) [Example 272, (7S)-7-(tert-butyl)-N-(1-(pyridin-4-yl)-3-(pyrrolidin-1-yl)propyl)-5,6,7,8-tetrahydrothiazolo[5,4-b]quinoline-2-carboxamide]: 940 nM.
Turning to `CC(C)(C)[C@H]1CCc2nc3sc(C(=O)N[C@H](CCN4CCC(c5ccccn5)CC4)c4cccc(NS(C)(=O)=O)c4)cc3cc2C1` (racemic) [Example 23, ammonium;methylsulfonyl-[3-[rac-(1R)-3-[4-(2-pyridyl)-1-piperidyl]-1-[[rac-(6S)-6-tert-butyl-5,6,7,8-tetrahydrothieno[2,3-b]quinoline-2carbonyl]amino]propyl]phenyl]azanide], the EC50 was 1790 nM.
In the case of `CC(C)(C)[C@H]1CCc2nc3sc(C(=O)N[C@H](CCN4CC(O)C4)c4ccc(-c5ccc(=O)[nH]c5)cc4)cc3cc2C1` (racemic) [Example 48, rac-(6S)-6-tert-butyl-N-[rac-(1R)-3-(3-hydroxyazetidin-1-ium-1-yl)-1-[4-(6-oxo-1H-pyridin-3-yl)phenyl]propyl]-5,6,7,8-tetrahydrothieno[2,3-b]quinoline-2-carboxamide;formate] it was 679 nM; in that of `CC(C)(C)[C@H]1CCc2nc3sc(C(=O)N[C@H](CCN4CCCC(O)C4)c4ccc(-c5ccc(=O)[nH]c5)cc4)cc3cc2C1` (mixture of isomers) [Example 55, rac-(6S)-6-tert-butyl-N-[rac-(1R)-3-(3-hydroxypiperidin-1-ium-1-yl)-1-[4-(6-oxo-1H-pyridin-3-yl)phenyl]propyl]-5,6,7,8-tetrahydrothieno[2,3-b]quinoline-2-carboxamide;formate], 792 nM.
In the case of `CC(C)(C)[C@H]1CCc2nc3sc(C(=O)N[C@H](CCN4CCC(O)CC4)c4cccc(NC(=O)C5CCNC5)c4)nc3cc2C1` (mixture of isomers) [Example 118, rac-(7S)-7-tert-butyl-N-[rac-(1R)-3-(4-hydroxy-1-piperidyl)-1-[3-(pyrrolidin-1-ium-3-carbonylamino)phenyl]propyl]-5,6,7,8-tetrahydrothiazolo[5,4-b] quinoline-2-carboxamide; 2,2,2 trifluoroacetate] it was 985 nM.
In the case of `CC(C)(C)[C@H]1CCc2nc3sc(C(=O)N[C@H](CCN4CCC(O)CC4)c4ccc(-c5cnc(O)c(C#N)c5)cc4)nc3cc2C1` (racemic) [Example 172, rac-(7S)-7-tert-butyl-N-[rac-(1R)-1-[4-(5-cyano-6-hydroxy-3-pyridyl)phenyl]-3-(4-hydroxypiperidin-1-ium-1-yl)propyl]-5,6,7,8-tetrahydrothiazolo[5,4-b]quinoline-2-carboxamide; 2,2,2-trifluoroacetate] it was 925 nM.
`CC(C)(C)[C@H]1CCc2nc3sc(C(=O)N[C@H](CCN4CCC(O)CC4)c4ccc(-c5ccnnc5)nc4)nc3cc2C1` [Example 263, (S)-7-(tert-butyl)-N-((R)-3-(4-hydroxypiperidin-1-yl)-1-(6-(pyridazin-4-yl)pyridin-3-yl)propyl)-5,6,7,8-tetrahydrothiazolo[5,4-b]quinoline-2-carboxamide] yielded an EC50 of 129 nM.
The same measure for `CC(C)(C)[C@H]1CCc2nc3sc(C(=O)N[C@H](CCN4CCCC(C(=O)O)C4)c4ccc(-c5ccc(=O)[nH]c5)cc4)cc3cc2C1` (mixture of isomers) [Example 56, 1-[rac-(3R)-3-[4-(6-oxo-1H-pyridin-3-yl)phenyl]-3-[[rac-(6S)-6-tert-butyl-5,6,7,8-tetrahydrothieno[2,3-b]quinoline-2-carbonyl]amino]propyl]piper idin-1-ium-3-carboxylic acid;formate]: 811 nM; for `CN1CC[C@H](NC(=O)c2cccc([C@@H](CCN3CCC(O)CC3)NC(=O)c3nc4cc5c(nc4s3)CC[C@H](C(C)(C)C)C5)c2)C1` (racemic) [Example 138, rac-(7S)-7-tert-butyl-N-[rac-(1R)-3-(4-hydroxy-1-piperidyl)-1-[3-[[rac-(3S)-1-methylpyrrolidin-3-yl]carbamoyl]phenyl]propyl]-5,6,7,8-tetrahydrothiazolo[5,4-b]quinoline-2-carboxamide]: 210 nM; for `CC(C)(C)[C@H]1CCc2nc3sc(C(=O)N[C@H](CCN4CCCC5(CCNC5=O)C4)c4cccc(NS(C)(=O)=O)c4)cc3cc2C1` (mixture of isomers) [Example 19, ammonium; methylsulfonyl-[3-[rac-(1R)-3-(1-oxo-2,9-diazaspiro[4.5]decan-9-y1)-1-[[rac-(6S)-6-tert-butyl-5,6,7,8-tetrahydrothieno[2,3-b]quinoline-2-carbonyl]amino]propyl]phenyl]azanide]: 1580 nM.
Compound `CN(C)CC1(O)CCN(CC[C@@H](NC(=O)c2nc3cc4c(nc3s2)CC[C@H](C(C)(C)C)C4)c2ccc(-c3cnc(O)c(F)c3)cc2)CC1` (racemic) [Example 200, rac-(7S)-7-tert-butyl-N-[rac-(1R)-3-[4-[(dimethylamino)methyl]-4-hydroxy-piperidin-1-ium-1-yl]-1-[4-(5-fluoro-6-hydroxy-3-pyridyl)phenyl]propyl]-5,6,7,8-tetrahydrothiazolo[5,4-b]quinoline-2-carboxamide; formate] yielded an EC50 of 243 nM.

The values are drawn from patent US12440496B2, “Natriuretic peptide receptor a agonists useful for the treatment of cardiometabolic diseases, kidney disease and diabetes” (Merck Sharp & Dohme LLC, priority 2019, dated 2025).
